This note sets out measurements from PubChem BioAssay (NCI).

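Step 1: Grow cells in 96-well plates. Step 2: Expose to compound for 48 hours at 5 concentrations. Step 3: Interpolate endpoints linearly; if unreached, use highest concentration. The concentration for 50% growth inhibition is given as GI50. TGI marks complete inhibition of growth.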

Among the test systems are A549 NSCLC; ACHN renal; K-562 leukemia; SK-MEL-2 melanoma; SK-MEL-28 melanoma; SK-MEL-5 melanoma; SW-620 colon; OVCAR-8 ovarian; SF-295 CNS; LOX IMVI melanoma.
Holding throughout (experiment): NCI anticancer screen, dose series, 48 h

As for `Cc1cc(C)c(C#N)c(SC(=S)NC(=O)c2ccccc2)n1`, the TGI with A549 NSCLC, in the assay with ACHN renal, with K-562 leukemia, in the assay with SK-MEL-2 melanoma, with SK-MEL-28 melanoma and with SK-MEL-5 melanoma was over 100 µM throughout. Also, the TGI with SW-620 colon was over 100 µM.

Regarding `Cc1cn(C2CC(SCCO)C(CO)O2)c(=O)[nH]c1=O` (stereo unspecified), the TGI in the assay on A549 NSCLC, in the assay on ACHN renal, in the assay with K-562 leukemia, in the assay with OVCAR-8 ovarian, with SF-295 CNS and in the assay with SK-MEL-2 melanoma was over 100 µM each time. For the same compound, the TGI in the assay on SK-MEL-28 melanoma and in the assay on SW-620 colon was over 100 µM each time.

Regarding `C/C=C\C(CC(=O)NCCc1c[nH]c2ccccc12)CC(=O)OC` (stereo unspecified), the TGI with A549 NSCLC, in the assay on ACHN renal, in the assay with K-562 leukemia, in the assay with OVCAR-8 ovarian, in the assay on SF-295 CNS and with SK-MEL-2 melanoma was over 100 µM throughout. For the same compound, the TGI with SK-MEL-28 melanoma, in the assay with SK-MEL-5 melanoma and in the assay with SW-620 colon was over 100 µM each time.

With `CCn1c(O)c(C(=O)NC(C)c2ccc([N+](=O)[O-])cc2)c(=O)n(CC)c1=S` (stereo unspecified), the TGI was 11.5 µM in the assay on A549 NSCLC; 11.2 µM in the assay on ACHN renal; 3.6 µM with K-562 leukemia; 10.9 µM with LOX IMVI melanoma; 3.7 µM in the assay with SF-295 CNS; 2.72 µM in the assay on SK-MEL-2 melanoma. Besides, the TGI in the assay on SK-MEL-28 melanoma was determined as 17.6 µM; with SK-MEL-5 melanoma it was 11.3 µM; with SW-620 colon it was 10.5 µM.

On to `COc1ccc(C[C@H]2COC(=O)[C@@H]2Cc2ccccc2)cc1OC`, for which the TGI in the assay with A549 NSCLC, in the assay with ACHN renal, with K-562 leukemia, with LOX IMVI melanoma, in the assay on OVCAR-8 ovarian and in the assay on SF-295 CNS was over 100 µM in each case. Moreover, the TGI in the assay with SK-MEL-28 melanoma, in the assay on SK-MEL-5 melanoma and in the assay with SW-620 colon was over 100 µM in each case.

Take `O=c1oc2ccccc2c(O)c1C(c1ccc(O)cc1)c1c(O)c2ccccc2oc1=O`: the TGI in the assay on ACHN renal, in the assay on LOX IMVI melanoma, in the assay with OVCAR-8 ovarian, with SK-MEL-2 melanoma, with SK-MEL-28 melanoma and in the assay with SK-MEL-5 melanoma was over 100 µM throughout. In the assay on SW-620 colon, this compound displayed a TGI of over 100 µM.

For `Cn1c(O)c(/C=N/c2ncccn2)c(=O)[nH]c1=O`, the TGI in the assay on A549 NSCLC, in the assay with ACHN renal, in the assay with LOX IMVI melanoma, in the assay with OVCAR-8 ovarian, in the assay on SF-295 CNS and with SK-MEL-2 melanoma was over 100 µM in each case. Also, the TGI in the assay on SK-MEL-28 melanoma, with SK-MEL-5 melanoma and in the assay on SW-620 colon was over 100 µM in each case.

As to `COc1ccc(-c2cc(-c3ccc(OC)c(OC)c3)nc(SCCCC(=O)NO)n2)cc1`, the GI50 was 0.456 µM in the assay on ACHN renal; 1.11 µM with K-562 leukemia; 0.243 µM in the assay on LOX IMVI melanoma; 0.782 µM in the assay on OVCAR-8 ovarian; 1.74 µM in the assay on SF-295 CNS; 2.14 µM with SK-MEL-2 melanoma. Also, the GI50 in the assay with SK-MEL-5 melanoma is 1.82 µM; with SW-620 colon, 0.906 µM. Further, the TGI is 2.29 µM with ACHN renal; over 100 µM in the assay on K-562 leukemia; 1.06 µM with LOX IMVI melanoma; over 100 µM in the assay with OVCAR-8 ovarian; 3.77 µM in the assay on SF-295 CNS; 5.85 µM with SK-MEL-2 melanoma. Moreover, the TGI in the assay with SK-MEL-5 melanoma came out at 3.68 µM; in the assay with SW-620 colon, 10.7 µM.

As to `COc1ccc2c3c([nH]c2c1)-c1nc2ccccc2c(=O)n1CC3`, the GI50 with A549 NSCLC was 0.754 µM. Moreover, the TGI in the assay with A549 NSCLC, in the assay with ACHN renal, in the assay on K-562 leukemia, in the assay with OVCAR-8 ovarian, in the assay with SF-295 CNS and in the assay on SK-MEL-28 melanoma was over 25 µM throughout. Also, the TGI in the assay with SK-MEL-5 melanoma and in the assay with SW-620 colon was over 25 µM throughout.

As for `S=c1oc(CCCCCCCCc2nn(CNc3ccc(Cl)cc3)c(=S)o2)nn1CNc1ccc(Cl)cc1`, the TGI with A549 NSCLC, in the assay on ACHN renal, in the assay with K-562 leukemia, with SF-295 CNS, with SK-MEL-2 melanoma and in the assay on SK-MEL-28 melanoma was over 100 µM in each case. Moreover, the values for the TGI with SK-MEL-5 melanoma and in the assay on SW-620 colon were 39.8 µM and over 100 µM, respectively.

With `Cc1cc(=O)[nH]c(NN2C(Cl)C(=O)C2c2ccco2)n1` (stereo unspecified), the TGI in the assay on A549 NSCLC is over 100 µM; in the assay with ACHN renal, over 100 µM; in the assay on K-562 leukemia it was over 100 µM; in the assay with LOX IMVI melanoma it was over 100 µM; in the assay on OVCAR-8 ovarian it was over 100 µM; in the assay on SK-MEL-2 melanoma it was 99.7 µM. In addition, the TGI with SK-MEL-5 melanoma and with SW-620 colon was over 100 µM throughout.

As to `Cc1ccc(C2(N3CCOCC3)OC(C)(C)c3cccc4cccc2c34)cc1` (stereo unspecified), the TGI with A549 NSCLC was 29 µM; in the assay on ACHN renal, 31.6 µM; with K-562 leukemia it was over 100 µM; in the assay on LOX IMVI melanoma it was 31 µM; with OVCAR-8 ovarian, 33.6 µM; in the assay on SF-295 CNS, 33.6 µM. Further, the figures for the TGI in the assay with SK-MEL-2 melanoma, in the assay on SK-MEL-5 melanoma and in the assay on SW-620 colon were 30.5 µM, 35.1 µM and 37 µM, respectively.

In the case of `CCCCN(CCCC)C1=Nc2ccccc2-n2c(nnc2C(=O)OCC)C1`, the TGI in the assay with A549 NSCLC is over 100 µM; in the assay on ACHN renal, over 100 µM; with K-562 leukemia it was 86.9 µM; in the assay with LOX IMVI melanoma it was over 100 µM; with OVCAR-8 ovarian, over 100 µM; in the assay on SF-295 CNS, over 100 µM. The figures for the TGI with SK-MEL-28 melanoma, with SK-MEL-5 melanoma and in the assay with SW-620 colon were over 100 µM, 38.5 µM and over 100 µM, respectively.

As for `CC(C)(C)C(=O)O[C@H]1C=C[C@@H](O)[C@@H]2[C@H]1[C@@H]1C=C[C@H]2C1`, the TGI in the assay on A549 NSCLC, in the assay with ACHN renal, with K-562 leukemia, in the assay on LOX IMVI melanoma, with OVCAR-8 ovarian and in the assay with SF-295 CNS was over 100 µM in each case. The TGI in the assay with SK-MEL-2 melanoma was over 100 µM; in the assay on SK-MEL-28 melanoma, 59.2 µM; in the assay on SW-620 colon, over 100 µM.
